Values quoted from earlier work, collected in patent publication US20140134693A1, “Eliminating the Need of Acidification in Bioethanol Production” (Anitox Corporation, priority 2012, published 2014).
Where two headings read alike, the source gives them in different places.

Legend:
[1] = test system: Lactobacillus; conditions: 600 mg/L
[2] = test system: Lactobacillus
[3] = test system: bacteria; conditions: sugarcane ethanol production
[4] = test system: Most bacteria, with the exception of Lactobacillus casei; conditions: ethanol fermentation process

For `O=C(O)CCC(=O)O` [Succinic acid], the “reduction of Lactobacillus levels” value [1] is given as 78% and the “reduction of Lactobacillus levels” value ([1]; in the presence of ethanol) is given as “up to 96%”.

For `NC(N)=O.OO` [Urea hydrogen peroxide], the “bactericidal activity against Lactobacillus (in words)” value [2] is given as “excellent bactericidal activity”.

In the case of `CC1(C)S[C@@H]2[C@H](NC(=O)[C@H](N)c3ccccc3)C(=O)N2[C@H]1C(=O)O` [ampicillin], the bacteria resistant [3] is listed as 97%.

In the case of `OO` [hydrogen peroxide], the concentration controlling bacteria [4] is listed as 1 to 10 mM.

For penicillin, the bacteria resistant [3] is listed as 97%.

In the case of virginiamycin, the bacteria resistant [3] is given as 48%.
